Source: patent US6858230B1, “Process for producing medicinal composition of basic hydrophobic medicinal compound” (Shionogi & Co., Ltd., priority 1999, dated 2005)

Key:
[1] = Dispersibility of active ingredient in acidic suspension with various kinds of acids; assay type: physicochemical; conditions: at preparation
Experimental: 50 g of PVP K30 was dissolved to 800 g of purified water. These aqueous solution were acidified by DL-Malic acid. The compound (I-1) was suspended in the acidic solution under stirring. The suspension was neutralized with 115 g of 13% NaOH aqueous solution to give a suspension. In place of malic acid in Example 3-1, citric acid was used. In place of malic acid in Example 3-1, phosphoric acid was used. No acid was used. Dispersibility of the compound (I-1) in an acidic suspension obtained in Example 3-1 to 3-4 including various kinds of acids was examined. Dispersibility was observed by the naked eyes at the time of preparation of an suspension.

[2] = Dispersibility of a basic compound in a suspension; assay type: physicochemical; conditions: suspension with DL-malic acid, neutralized with NaOH (Examples 3-1, 4, 5)
Experimental: 50 g of PVP K30 was dissolved to 800 g of purified water. These aqueous solution were acidified by DL-Malic acid. The compound (I-1) was suspended in the acidic solution under stirring. The suspension was neutralized with 115 g of 13% NaOH aqueous solution to give a suspension. In place of the compound (I-1) in Example 3-1, pindolol was used. In place of the compound (I-1) in Example 3-1, noscapine was used. Dispersibility of the compound (I-1) in an acidic suspension obtained in Example 3-1 to 3-4 including various kinds of acids was examined. Dispersibility was observed by the naked eyes at the time of preparation of an suspension. Dispersibility of active ingredient in the suspension obtained in Example 3-1, 4 and 5 was examined in accordance with Experiment 4.

Row | Dispersibility of drug substance ([1]; suspension with citric acid (Example 3-2)) | Dispersibility of drug substance ([1]; suspension with malic acid (Example 3-1)) | Dispersibility of drug substance ([1]; suspension with no acid (Reference Example 3-4)) | Dispersibility of drug substance ([1]; suspension with phosphoric acid (Example 3-3)) | Dispersibility of drug substance [2] | SMILES
1 | Good | Good | Formation | Good | Good | CC(C)c1nc(COC(N)=O)n(Cc2ccncc2)c1Sc1cc(Cl)cc(Cl)c1 [Compound (I-1), 5-(3,5-dichlorophenyl)thio-4-isopropyl-1-(4-pyridyl)methyl-1H-imidazol-2-ylmethyl carbamate]
2 |  |  |  |  | Good | CC(C)NCC(O)COc1cccc2[nH]ccc12 (stereo not shown) [Pindolol, pindolol]
3 |  |  |  |  | Good | COc1ccc2c(c1OC)C(=O)O[C@@H]2[C@H]1c2c(cc3c(c2OC)OCO3)CCN1C [Noscapine, noscapine]
